For the molecule `COc1cc(C(=O)NNC(=N)N)c(OC)cc1C`, the melting point was found to be 193 °C. To `Cc1cccc(NC(=O)NCC(=O)N(CC(=O)OC(C)(C)C)c2ccccc2F)c1` belongs 148 °C; to `O=C(NCc1ccc(Cl)cc1)c1cnc2cc(I)ccc2c1O`, 248 to 250 °C; to `CNc1nc(-n2cc(C(=O)O)c(=O)c3cc(F)c(F)c(Cl)c32)c(F)cc1F`, 236 to 242 °C.

Molecule `CCOC(=O)CNC(=O)c1nc2ccc(NCCCN3CCC(OC(c4ccccc4)c4ccccc4)CC3)nn2c1Cl` registered a melting point of 178 to 180 °C. To `Cc1ccc(OC2CCN(C(=O)C(=O)O)CC2)cc1` belongs 109 to 112 °C. To `CON=C(C(=O)OC)C1=C(C(=O)c2ccc(F)cc2)CC(C)=C(C)C1` belongs 97 to 98 °C. For `CCCc1nc(SC2CCC(CC(=O)O)CC2)c(C(=O)O)n1Cc1cc2c(cc1Cl)OCO2` (stereo not drawn) the value was 166 °C; for `CC1Cc2c(n(Cc3ccc(Cl)cc3)c3ccc(F)cc23)C(CC(=O)O)C1` (stereo not drawn), 205 to 206 °C; for `CC1(C)CN=C2N(C1)c1ccc(C(=O)O)cc1C21OCCCO1`, 151 to 153 °C.

For `O=C(O)CNc1csc2ccccc12`, the melting point is 195 to 198 °C. For `CN(CC(=O)O)C(=O)CCc1cccc(-c2nc(=O)c3ccccc3s2)n1` the value was 194 to 195 °C. To `CC(C)Nc1nccc(C#Cc2ccc(F)cc2)n1` belongs 128 to 129 °C. For `N#CCN1C(=O)CC=C(C2(c3ccccc3)C=C3C=CC=CN3N2)N1C1=CCCCC1` (stereo not drawn) the value was 74 to 76 °C. Molecule `O=C(NN1CCCCC1)c1nn(-c2ccc(Cl)cc2Cl)c(-c2ccc(Cl)cc2)c1COCCO` yielded a melting point of 194 °C. To `Cc1ccccc1NC1=CC(=O)NCC1` belongs 155 to 158 °C; to `CCCCC#CCCOc1ccc(/C=C/C(=O)Nc2ccccc2C(=O)O)cc1OC`, 169 to 170 °C.

Regarding `N#CC1CCCCn2cccc21` (stereo not drawn), the melting point fell in the range of 70 to 72 °C. For `CCCCCCC/C=C/C(=O)NC` the value was 60 to 63 °C; for `COc1cccc(NC(=O)NCC(=O)N2[C@@H](C(=O)OC(C)(C)C)CC[C@H]2c2ccccc2)c1` (racemic), 174 °C. In turn, `O=C(O)c1nc2c(=O)[nH]c3cc(C(F)(F)F)ccc3n2c1CP(=O)(O)O` returned a melting point of more than 250 °C. To `CCCc1c(OCCCCCCCOc2ccc(C(=O)c3cccc(C(=O)O)c3)cc2CCC(=O)O)ccc2c1OCCC2=O` belongs 152 to 153 °C. For `Cc1ccc(-c2nnc3cc(-c4ccccc4)c(OCc4ncn(C)n4)nn23)s1` the value was 209 to 210 °C. To `C[C@@H](N)CN(c1ccccn1)S(=O)(=O)O` belongs 176 to 179 °C; to `CCOC(=O)C1=C(C(OCC)OCC)NC(C)=C(C(=O)OCCO)C1c1cccc([N+](=O)[O-])c1` (stereo not drawn), 98 to 100 °C; to `O=C(O)C1CCN(CC2CN(CC3CCN(c4ccncc4)CC3)C(=O)O2)CC1` (stereo not drawn), 94 to 96 °C. On to `NC(=O)c1cc(N(Cc2c(F)c(F)c(C(F)(F)F)c(F)c2F)C(=O)C(F)(F)F)ccc1OC(=O)C(F)(F)F`, for which the melting point is 179 to 180 °C. To `C=Cc1c(CS)cnc(C)c1O` belongs 130 to 140 °C; to `Cc1c(C=CC#N)c2c(c(C)c1OCc1ccccc1)CCC(C)(C)O2`, 108 °C. To `Cc1nc[nH]c1CSCCN=C(NC#N)NCCc1c[nH]cn1` belongs 170 to 171 °C; to `c1ccc2c(c1)cnn2-c1nc(NC2CCCCC2)c2ccccc2n1`, 278 to 281 °C. Molecule `CCOC(CNC(=S)Nc1nccs1)OCC` returned a melting point of 118 to 119 °C. For `OC[C@H]1C[C@@H](n2cnc3cc(Cl)c(Cl)cc32)[C@H](O)[C@@H]1O` the value was 222 to 225 °C; for `COc1ccc(Cn2c(=O)c(Cl)nc3ccc4ccccc4c32)c(OC)c1`, 186 °C. To `COc1ccc(/C=C/c2ccc3nc(C(=O)N[C@@H](Cc4ccc(OCc5ccccc5)cc4)C(=O)O)cn3c2)cc1` belongs 262 to 263 °C; to `CCCc1nnc(Cc2ccc(NC(=O)/C=C/c3cnn(C)c3-c3ccc(F)cc3)cc2)o1`, 154 to 155 °C; to `COc1ccc(OC)c2c1C[C@@H](O)[C@H](N1CCN(c3ccccc3C)CC1)C2` (relative stereo), 217 to 219 °C. To `C=Cc1cnc([N+](=O)[O-])n1CC` belongs 45 to 47 °C. `CCC(O)(c1ccc(OCCCN2CCC(C)CC2)cc1)c1ccccc1OC` (stereo not drawn) gave a melting point of 82 to 83 °C. To `C=CCNC(=O)N1CC(Oc2ccc(C(F)(F)F)cc2Cl)C1` belongs 102 to 104 °C. In turn, `Cc1cc(-c2nc3ccc(N4CCOCC4)cc3c(=O)[nH]2)cc(C)c1OCCO` registered a melting point of 280 to 281 °C.

`COc1ccc(C=Cc2cc(I)c(OC)c(OC)c2)cc1O` came in with a melting point of 92 to 94 °C. For `CCOC(=O)C(c1ccc(N)cc1)N(C)C(C)C` (stereo not drawn) the value was 70 to 71 °C; for `CN(C)C(=O)Cn1c(-c2ccc(F)cc2)nc2cccnc21`, 180 to 183 °C.

`O=C(NC(Cc1c[nH]c2ccccc12)C(=O)OCc1ccccc1C(F)(F)F)c1ccccc1` (stereo not drawn): the melting point turned out to be 117 °C.

In turn, `COCOc1ccc(C2(c3cccc(-c4cccnc4F)c3)N=C(N)N3CCCN=C32)cc1` (stereo not drawn) gave a melting point of 95 to 105 °C. For `O=C(O)c1cn(C2CC2)c2c(F)c(N3CCC(n4cncn4)C3)c(F)cc2c1=O` (stereo not drawn) the value was 220 to 221 °C.

In turn, `Cc1c(COc2cccc3cc(NS(=O)(=O)C(F)(F)F)ccc23)cccc1-c1ccccc1` gave a melting point of 124 to 125 °C.

As to `O=C1Nc2ccccc2C1CCCCN1CCN(c2ccccn2)CC1` (stereo not drawn), the melting point was 131 to 132 °C. With `Cc1cc(C(C)C(=O)O)n(C)c1C(=O)c1ccc(Cl)cc1` (stereo not drawn), the melting point fell in the range of 153 to 154 °C. For `Cc1cccc(NC(=O)NCC(=O)N2[C@@H](C(=O)OC(C)(C)C)C[C@@H](C(=O)N(C)C)[C@H]2c2ccccc2)c1` (racemic) the value was 199 °C; for `CCOC(=O)c1sc(N)nc1C(C)(C)C`, 99 to 100 °C. To `COc1ccc(-c2cc(CO)c(=O)n(CC=Cc3ccc(Cl)cc3)n2)cc1F` belongs 158 to 160 °C. The molecule `O=C1C(Cl)=C(NC2CCCC2)C(=O)c2ccccc21` showed a melting point of 81 to 83 °C. For `COc1ccccc1C1=Nc2ccc(C(=O)O)cc2C(=O)C1`, the melting point is 290 to 294 °C.

Consider `COC(=O)C(OC)(OC)C(=O)Nc1cc(Cl)cc(Cl)c1`, for which the melting point was 160 to 164 °C. In the case of `Cn1ncc2[nH]c3ccc(Cc4ccccc4C(N)=O)cc3c(=O)c21`, the melting point was determined as 272 °C. To `COCc1c[nH]c2c([N+](=O)[O-])ccc(C)c2c1=O` belongs 210 to 213 °C; to `Cc1ncc(CN2CCc3ccccc3C2)c(N)n1`, 150 to 153 °C.

Molecule `COc1ccc(/C=C/C(=O)c2c(OC)cc(OC)cc2OC(=O)[C@H](C)NC(=O)OCc2ccccc2)cc1` registered a melting point of 163 to 164 °C. To `CN(C)C1CCc2[nH]c3ccccc3c2C1` (stereo not drawn) belongs 138 °C; to `COc1ccccc1-c1nsc2ccc([N+](=O)[O-])cc12`, 193 to 198 °C. To `C[C@](O)(CBr)C(=O)Nc1ccc(C#N)c(C(F)(F)F)c1` belongs 124 to 126 °C.

Source of the values: a melting point compilation (Tetko et al.; mined from patent text by program, amines drawn as free bases though some values may be those of a salt).
